# Measurements: paper PMC5513037, “Examining the influence of specificity ligands and ATP-competitive ligands on the overall effectiveness of bivalent kinase inhibitors” (Proteome Science, 2017)
# Tests used:
# Assay in all cases: KAM-matrix competition in K562 lysate;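 as to 0.001 uM KAM: median log10 fold change of treatment over DMSO control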;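 as to 0.01 uM KAM: median log10 fold change of treatment over DMSO control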;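 as to 0.1 uM KAM: median log10 fold change of treatment over DMSO control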;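 as to 1 uM KAM: median log10 fold change of treatment over DMSO control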;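 as to 10 uM KAM: median log10 fold change of treatment over DMSO control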
# Format in all cases: binding
# RPS6KA5 = molecular target: T1, RPS6KA5 (Homo sapiens, UniProt O75582)
# T1 construct: endogenous in cells; host or cells: K562
# Protocol: (§1) Supplement 12953_2017_125_MOESM1_ESM.zip/MS_Supp Info.xlsx, sheet "KAM" | column: 10 uM KAM; 1 uM KAM; 0.1 uM KAM; 0.01 uM KAM; 0.001 uM KAM; RB50
# FAM20B = molecular target: T2, FAM20B (Homo sapiens, UniProt O75063);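 as to 0.001 uM KAM: median log10 fold change of treatment over DMSO control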;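 as to 0.01 uM KAM: median log10 fold change of treatment over DMSO control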;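 as to 0.1 uM KAM: median log10 fold change of treatment over DMSO control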;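 as to 1 uM KAM: median log10 fold change of treatment over DMSO control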;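 as to 10 uM KAM: median log10 fold change of treatment over DMSO control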
# T2 construct: endogenous in cells; host or cells: K562
# T2 sequence (O75063 1-409): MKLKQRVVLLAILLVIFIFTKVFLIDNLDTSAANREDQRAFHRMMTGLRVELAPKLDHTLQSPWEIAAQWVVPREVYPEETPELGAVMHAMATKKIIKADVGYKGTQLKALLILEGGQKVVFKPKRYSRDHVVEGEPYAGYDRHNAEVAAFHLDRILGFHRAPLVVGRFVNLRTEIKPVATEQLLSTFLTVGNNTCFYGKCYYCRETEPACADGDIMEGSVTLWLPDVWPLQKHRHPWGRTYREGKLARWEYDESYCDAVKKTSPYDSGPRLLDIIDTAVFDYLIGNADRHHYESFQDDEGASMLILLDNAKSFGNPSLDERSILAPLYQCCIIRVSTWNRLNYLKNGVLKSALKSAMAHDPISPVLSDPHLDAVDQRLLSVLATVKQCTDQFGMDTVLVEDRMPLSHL
# Protocol: as §1
# ROR2 = molecular target: T3, ROR2 (Homo sapiens, UniProt Q01974);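 as to 0.001 uM KAM: median log10 fold change of treatment over DMSO control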;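 as to 0.01 uM KAM: median log10 fold change of treatment over DMSO control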;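 as to 0.1 uM KAM: median log10 fold change of treatment over DMSO control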;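 as to 1 uM KAM: median log10 fold change of treatment over DMSO control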;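 as to 10 uM KAM: median log10 fold change of treatment over DMSO control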
# T3 construct: endogenous in cells; host or cells: K562
# Protocol: as §1
# NEK8 = molecular target: T4, NEK8 (Homo sapiens, UniProt Q86SG6)
# T4 construct: endogenous in cells; host or cells: K562
# T4 sequence (Q86SG6 1-692): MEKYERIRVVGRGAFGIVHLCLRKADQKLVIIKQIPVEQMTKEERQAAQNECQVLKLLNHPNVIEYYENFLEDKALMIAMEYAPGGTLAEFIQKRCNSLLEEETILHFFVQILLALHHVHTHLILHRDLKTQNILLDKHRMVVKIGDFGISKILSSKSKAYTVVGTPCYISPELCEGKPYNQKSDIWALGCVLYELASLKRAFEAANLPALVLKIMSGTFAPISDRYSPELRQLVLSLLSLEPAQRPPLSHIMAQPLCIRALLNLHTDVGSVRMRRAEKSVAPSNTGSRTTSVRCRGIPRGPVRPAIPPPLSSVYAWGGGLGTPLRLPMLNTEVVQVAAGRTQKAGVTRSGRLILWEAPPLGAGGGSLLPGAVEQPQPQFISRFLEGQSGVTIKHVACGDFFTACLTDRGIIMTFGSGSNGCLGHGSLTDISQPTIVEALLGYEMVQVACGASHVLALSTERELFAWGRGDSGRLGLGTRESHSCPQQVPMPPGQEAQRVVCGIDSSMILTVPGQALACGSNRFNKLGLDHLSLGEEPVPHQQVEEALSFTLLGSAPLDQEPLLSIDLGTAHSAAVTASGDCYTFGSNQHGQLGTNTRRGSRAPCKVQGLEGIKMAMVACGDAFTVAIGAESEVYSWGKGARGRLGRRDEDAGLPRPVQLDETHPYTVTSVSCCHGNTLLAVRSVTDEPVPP
# Protocol: as §1
# TEC = molecular target: T5, TEC (Homo sapiens, UniProt P42680)
# T5 construct: endogenous in cells; host or cells: K562 cell lysate
# T5 sequence (P42680 1-631): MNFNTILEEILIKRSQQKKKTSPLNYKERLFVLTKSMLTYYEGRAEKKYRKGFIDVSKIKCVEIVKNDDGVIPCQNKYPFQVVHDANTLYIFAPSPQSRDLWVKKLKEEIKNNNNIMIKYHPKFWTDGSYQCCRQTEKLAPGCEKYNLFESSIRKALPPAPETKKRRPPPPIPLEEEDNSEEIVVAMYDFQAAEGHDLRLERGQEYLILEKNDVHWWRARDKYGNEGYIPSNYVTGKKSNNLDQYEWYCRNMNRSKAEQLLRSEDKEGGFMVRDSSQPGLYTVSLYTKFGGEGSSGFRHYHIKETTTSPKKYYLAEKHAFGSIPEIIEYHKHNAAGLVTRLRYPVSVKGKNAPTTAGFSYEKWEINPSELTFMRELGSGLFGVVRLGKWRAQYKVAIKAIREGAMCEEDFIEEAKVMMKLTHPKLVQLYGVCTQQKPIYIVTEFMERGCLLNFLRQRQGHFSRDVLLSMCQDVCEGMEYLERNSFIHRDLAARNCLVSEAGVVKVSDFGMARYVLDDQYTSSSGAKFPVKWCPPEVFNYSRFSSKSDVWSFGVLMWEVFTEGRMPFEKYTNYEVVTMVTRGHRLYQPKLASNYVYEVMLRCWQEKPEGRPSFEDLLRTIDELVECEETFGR
# Protocol: as §1
# WNK1 = molecular target: T6, WNK1 (Homo sapiens, UniProt Q9H4A3);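 as to 0.001 uM KAM: median log10 fold change of treatment over DMSO control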;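 as to 0.01 uM KAM: median log10 fold change of treatment over DMSO control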;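 as to 0.1 uM KAM: median log10 fold change of treatment over DMSO control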;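 as to 1 uM KAM: median log10 fold change of treatment over DMSO control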;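 as to 10 uM KAM: median log10 fold change of treatment over DMSO control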
# T6 construct: endogenous in cells; host or cells: K562
# Protocol: as §1
# LRRK2 = molecular target: T7, LRRK2 (Homo sapiens, UniProt Q5S007);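 as to 0.001 uM KAM: median log10 fold change of treatment over DMSO control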;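 as to 0.01 uM KAM: median log10 fold change of treatment over DMSO control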;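 as to 0.1 uM KAM: median log10 fold change of treatment over DMSO control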;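 as to 1 uM KAM: median log10 fold change of treatment over DMSO control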;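 as to 10 uM KAM: median log10 fold change of treatment over DMSO control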
# T7 construct: endogenous in cells; host or cells: K562
# Protocol: as §1
# PTK2 = molecular target: T8, PTK2 (Homo sapiens, UniProt Q05397)
# T8 construct: endogenous in cells; host or cells: K562
# Protocol: as §1
# [1] = read-out: RB50 (the source's name)
# [2] = KAM 0.001-10 uM, read-out: RB50 (the source's name)
# T8 sequence (Q05397 whole entry): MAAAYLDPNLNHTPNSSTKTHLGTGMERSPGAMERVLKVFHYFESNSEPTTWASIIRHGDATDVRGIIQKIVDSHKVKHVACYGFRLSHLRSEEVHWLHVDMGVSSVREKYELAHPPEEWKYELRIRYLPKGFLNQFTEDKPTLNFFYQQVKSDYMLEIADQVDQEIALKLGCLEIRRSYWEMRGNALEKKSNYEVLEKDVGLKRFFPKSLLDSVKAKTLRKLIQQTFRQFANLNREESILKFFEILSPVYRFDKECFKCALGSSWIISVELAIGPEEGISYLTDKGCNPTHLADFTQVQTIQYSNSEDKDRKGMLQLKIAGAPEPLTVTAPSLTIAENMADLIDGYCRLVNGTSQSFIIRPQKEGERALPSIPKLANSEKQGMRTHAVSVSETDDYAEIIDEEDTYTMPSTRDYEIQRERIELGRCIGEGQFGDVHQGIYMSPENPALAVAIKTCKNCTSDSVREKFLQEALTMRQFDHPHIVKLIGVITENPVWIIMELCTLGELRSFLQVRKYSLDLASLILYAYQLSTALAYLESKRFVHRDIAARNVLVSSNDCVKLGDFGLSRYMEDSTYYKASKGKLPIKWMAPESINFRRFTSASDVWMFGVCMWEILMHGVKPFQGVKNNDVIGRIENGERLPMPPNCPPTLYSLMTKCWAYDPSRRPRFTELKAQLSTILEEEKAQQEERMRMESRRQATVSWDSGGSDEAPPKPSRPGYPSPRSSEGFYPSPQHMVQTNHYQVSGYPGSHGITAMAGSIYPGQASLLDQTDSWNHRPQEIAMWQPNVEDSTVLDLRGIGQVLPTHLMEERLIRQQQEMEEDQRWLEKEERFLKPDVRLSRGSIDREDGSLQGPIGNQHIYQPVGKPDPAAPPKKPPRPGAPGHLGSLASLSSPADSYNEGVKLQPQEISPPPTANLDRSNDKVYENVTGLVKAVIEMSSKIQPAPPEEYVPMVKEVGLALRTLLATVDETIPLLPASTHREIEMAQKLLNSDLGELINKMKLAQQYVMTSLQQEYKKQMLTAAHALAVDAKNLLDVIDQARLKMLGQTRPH
# T6 sequence (Q9H4A3 whole entry): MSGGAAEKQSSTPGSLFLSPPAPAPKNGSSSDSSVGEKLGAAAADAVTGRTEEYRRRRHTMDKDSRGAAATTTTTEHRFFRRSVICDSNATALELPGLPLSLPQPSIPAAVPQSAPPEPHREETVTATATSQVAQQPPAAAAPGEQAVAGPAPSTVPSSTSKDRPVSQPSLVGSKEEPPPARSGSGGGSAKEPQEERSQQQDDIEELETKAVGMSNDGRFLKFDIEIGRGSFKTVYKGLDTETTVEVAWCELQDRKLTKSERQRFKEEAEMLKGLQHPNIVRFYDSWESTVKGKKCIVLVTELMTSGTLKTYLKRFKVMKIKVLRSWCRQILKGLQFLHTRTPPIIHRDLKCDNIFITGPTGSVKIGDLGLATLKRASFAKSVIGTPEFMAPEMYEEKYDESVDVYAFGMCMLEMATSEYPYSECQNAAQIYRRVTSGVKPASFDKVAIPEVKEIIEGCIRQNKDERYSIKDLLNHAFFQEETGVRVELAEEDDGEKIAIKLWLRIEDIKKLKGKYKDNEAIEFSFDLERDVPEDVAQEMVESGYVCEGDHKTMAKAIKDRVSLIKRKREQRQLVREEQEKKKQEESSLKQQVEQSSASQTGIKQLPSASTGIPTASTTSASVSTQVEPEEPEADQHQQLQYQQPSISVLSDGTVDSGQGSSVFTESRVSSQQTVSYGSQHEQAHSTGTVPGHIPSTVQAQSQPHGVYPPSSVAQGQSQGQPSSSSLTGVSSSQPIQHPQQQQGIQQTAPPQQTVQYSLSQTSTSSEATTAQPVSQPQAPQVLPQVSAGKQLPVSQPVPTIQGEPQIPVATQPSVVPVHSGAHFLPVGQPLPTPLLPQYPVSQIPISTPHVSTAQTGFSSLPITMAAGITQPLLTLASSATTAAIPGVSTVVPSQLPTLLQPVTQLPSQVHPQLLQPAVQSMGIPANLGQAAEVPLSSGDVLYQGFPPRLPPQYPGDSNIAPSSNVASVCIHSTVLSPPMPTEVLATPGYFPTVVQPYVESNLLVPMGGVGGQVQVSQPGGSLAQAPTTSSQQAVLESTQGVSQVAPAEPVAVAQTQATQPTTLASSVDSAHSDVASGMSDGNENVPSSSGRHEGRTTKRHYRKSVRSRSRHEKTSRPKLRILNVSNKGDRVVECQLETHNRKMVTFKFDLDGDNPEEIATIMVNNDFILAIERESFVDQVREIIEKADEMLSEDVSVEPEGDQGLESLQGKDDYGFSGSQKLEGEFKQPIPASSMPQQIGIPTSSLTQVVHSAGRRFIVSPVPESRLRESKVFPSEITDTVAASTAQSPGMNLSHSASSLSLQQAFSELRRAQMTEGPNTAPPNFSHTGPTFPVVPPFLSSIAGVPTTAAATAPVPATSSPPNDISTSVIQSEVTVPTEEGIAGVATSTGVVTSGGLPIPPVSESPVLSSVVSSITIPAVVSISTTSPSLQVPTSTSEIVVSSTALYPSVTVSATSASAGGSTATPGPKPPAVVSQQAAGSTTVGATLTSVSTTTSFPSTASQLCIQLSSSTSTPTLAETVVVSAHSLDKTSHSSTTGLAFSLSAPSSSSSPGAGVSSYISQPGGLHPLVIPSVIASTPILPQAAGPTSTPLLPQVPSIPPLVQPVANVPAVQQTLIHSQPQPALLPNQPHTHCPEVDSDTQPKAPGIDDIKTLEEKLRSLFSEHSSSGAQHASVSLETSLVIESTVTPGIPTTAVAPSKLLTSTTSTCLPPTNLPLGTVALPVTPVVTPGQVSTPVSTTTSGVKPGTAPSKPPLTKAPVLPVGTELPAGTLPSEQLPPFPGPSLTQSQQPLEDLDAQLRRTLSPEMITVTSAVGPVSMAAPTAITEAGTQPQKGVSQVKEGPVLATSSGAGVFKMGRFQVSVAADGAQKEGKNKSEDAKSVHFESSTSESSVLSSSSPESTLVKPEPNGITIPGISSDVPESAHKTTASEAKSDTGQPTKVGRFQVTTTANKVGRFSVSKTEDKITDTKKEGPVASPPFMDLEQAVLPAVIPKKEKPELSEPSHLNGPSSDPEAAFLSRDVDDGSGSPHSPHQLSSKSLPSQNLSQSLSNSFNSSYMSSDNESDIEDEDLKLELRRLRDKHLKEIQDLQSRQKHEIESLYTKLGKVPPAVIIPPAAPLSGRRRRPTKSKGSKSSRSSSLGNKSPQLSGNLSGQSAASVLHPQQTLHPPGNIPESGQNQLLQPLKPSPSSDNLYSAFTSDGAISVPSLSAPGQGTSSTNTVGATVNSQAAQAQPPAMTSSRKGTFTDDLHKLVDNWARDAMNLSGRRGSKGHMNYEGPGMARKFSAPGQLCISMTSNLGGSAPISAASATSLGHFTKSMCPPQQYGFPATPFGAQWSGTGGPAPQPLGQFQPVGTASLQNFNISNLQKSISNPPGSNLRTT
# T1 sequence (O75582 whole entry): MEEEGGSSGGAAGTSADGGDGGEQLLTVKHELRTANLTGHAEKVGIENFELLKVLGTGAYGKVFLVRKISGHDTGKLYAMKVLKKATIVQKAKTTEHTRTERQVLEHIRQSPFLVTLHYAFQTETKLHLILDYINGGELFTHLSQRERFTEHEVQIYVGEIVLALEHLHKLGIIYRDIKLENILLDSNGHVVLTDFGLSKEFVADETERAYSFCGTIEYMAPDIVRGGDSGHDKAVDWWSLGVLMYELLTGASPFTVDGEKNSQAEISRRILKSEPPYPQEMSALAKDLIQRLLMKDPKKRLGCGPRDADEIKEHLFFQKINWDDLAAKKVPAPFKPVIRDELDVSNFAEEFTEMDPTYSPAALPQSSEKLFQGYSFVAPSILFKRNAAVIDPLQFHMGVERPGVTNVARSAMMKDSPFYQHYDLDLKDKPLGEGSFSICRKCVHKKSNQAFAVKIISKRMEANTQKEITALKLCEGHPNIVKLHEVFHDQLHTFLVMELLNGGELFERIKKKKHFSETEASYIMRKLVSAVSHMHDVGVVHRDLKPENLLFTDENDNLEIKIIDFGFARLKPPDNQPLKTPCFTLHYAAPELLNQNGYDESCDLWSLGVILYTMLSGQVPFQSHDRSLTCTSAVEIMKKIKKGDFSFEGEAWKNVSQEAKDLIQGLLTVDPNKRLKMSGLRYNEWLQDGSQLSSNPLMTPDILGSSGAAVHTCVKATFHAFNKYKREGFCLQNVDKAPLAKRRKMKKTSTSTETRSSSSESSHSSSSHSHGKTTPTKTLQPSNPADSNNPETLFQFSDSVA
# T3 sequence (Q01974 34-943): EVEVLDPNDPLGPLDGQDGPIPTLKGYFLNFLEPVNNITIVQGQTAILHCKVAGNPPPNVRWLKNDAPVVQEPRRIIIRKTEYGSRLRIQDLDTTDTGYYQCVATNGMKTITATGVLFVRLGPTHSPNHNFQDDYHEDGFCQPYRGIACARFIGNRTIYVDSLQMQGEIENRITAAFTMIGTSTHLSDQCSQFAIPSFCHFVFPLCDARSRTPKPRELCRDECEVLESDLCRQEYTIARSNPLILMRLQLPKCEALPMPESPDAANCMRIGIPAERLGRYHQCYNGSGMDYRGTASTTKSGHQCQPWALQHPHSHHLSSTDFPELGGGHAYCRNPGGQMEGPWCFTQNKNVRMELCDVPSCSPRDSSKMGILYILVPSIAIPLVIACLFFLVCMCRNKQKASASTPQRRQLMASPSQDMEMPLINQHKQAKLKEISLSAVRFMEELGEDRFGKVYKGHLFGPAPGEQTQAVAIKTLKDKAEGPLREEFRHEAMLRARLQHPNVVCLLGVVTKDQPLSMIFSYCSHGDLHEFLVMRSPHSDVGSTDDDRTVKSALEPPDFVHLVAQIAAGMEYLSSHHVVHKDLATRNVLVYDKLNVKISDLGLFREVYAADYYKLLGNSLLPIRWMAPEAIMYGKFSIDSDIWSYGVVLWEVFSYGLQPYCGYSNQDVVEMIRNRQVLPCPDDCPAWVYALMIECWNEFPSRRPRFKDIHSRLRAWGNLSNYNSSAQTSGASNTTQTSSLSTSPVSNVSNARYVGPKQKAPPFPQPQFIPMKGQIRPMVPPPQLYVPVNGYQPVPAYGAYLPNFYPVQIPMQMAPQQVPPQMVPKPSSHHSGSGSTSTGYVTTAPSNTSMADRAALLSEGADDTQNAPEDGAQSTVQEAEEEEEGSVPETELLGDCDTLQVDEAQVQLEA
smiles,measurement,setting,value
N#CCc1ccc(Nc2nc(NCCCN)cc(Nc3cc(C4CC4)[nH]n3)n2)cc1 [KAM],median Log10 fold change,RPS6KA5; 0.001 uM KAM,0.02456
same,median Log10 fold change,RPS6KA5; 0.01 uM KAM,-0.007608
same,median Log10 fold change,RPS6KA5; 0.1 uM KAM,-0.1303
same,median Log10 fold change,RPS6KA5; 1 uM KAM,-0.3238
same,median Log10 fold change,RPS6KA5; 10 uM KAM,-0.3743
same,IC50,RPS6KA5; [1],1190 nM
same,IC50,FAM20B; [2],> 10000 nM
same,0.001 uM KAM,FAM20B; relative to 0 uM KAM = 0,-0.03245
same,0.01 uM KAM,FAM20B; relative to 0 uM KAM = 0,-0.03308
same,0.1 uM KAM,FAM20B; relative to 0 uM KAM = 0,-0.01554
same,1 uM KAM,FAM20B; relative to 0 uM KAM = 0,-0.05098
same,10 uM KAM,FAM20B; relative to 0 uM KAM = 0,0.1003
same,IC50,ROR2; [2],> 10000 nM
same,0.001 uM KAM,ROR2; relative to 0 uM KAM = 0,-0.05631
same,0.01 uM KAM,ROR2; relative to 0 uM KAM = 0,-0.02329
same,0.1 uM KAM,ROR2; relative to 0 uM KAM = 0,-0.008785
same,1 uM KAM,ROR2; relative to 0 uM KAM = 0,-0.03493
same,10 uM KAM,ROR2; relative to 0 uM KAM = 0,0.2477
same,median Log10 fold change,NEK8; 0.001 uM KAM,-0.1269
same,median Log10 fold change,NEK8; 0.01 uM KAM,-0.1123
same,median Log10 fold change,NEK8; 0.1 uM KAM,-0.2566
same,median Log10 fold change,NEK8; 1 uM KAM,-0.2815
same,median Log10 fold change,NEK8; 10 uM KAM,-0.455
same,IC50,NEK8; [1],861 nM
same,median Log10 fold change,TEC; 0.001 uM KAM,-0.06308
same,median Log10 fold change,TEC; 0.01 uM KAM,-0.04798
same,median Log10 fold change,TEC; 0.1 uM KAM,-0.155
same,median Log10 fold change,TEC; 1 uM KAM,-0.2973
same,median Log10 fold change,TEC; 10 uM KAM,-0.4239
same,IC50,TEC; [1],1160 nM
same,IC50,WNK1; [2],> 10000 nM
same,0.001 uM KAM,WNK1; relative to 0 uM KAM = 0,-0.03013
same,0.01 uM KAM,WNK1; relative to 0 uM KAM = 0,-0.03259
same,0.1 uM KAM,WNK1; relative to 0 uM KAM = 0,-0.03066
same,1 uM KAM,WNK1; relative to 0 uM KAM = 0,0.00603
same,10 uM KAM,WNK1; relative to 0 uM KAM = 0,-0.05865
same,IC50,LRRK2; [2],> 10000 nM
same,0.001 uM KAM,LRRK2; relative to 0 uM KAM = 0,-0.05098
same,0.01 uM KAM,LRRK2; relative to 0 uM KAM = 0,-0.01752
same,0.1 uM KAM,LRRK2; relative to 0 uM KAM = 0,0.02155
same,1 uM KAM,LRRK2; relative to 0 uM KAM = 0,0.06199
same,10 uM KAM,LRRK2; relative to 0 uM KAM = 0,-0.09009
same,median Log10 fold change,PTK2; 0.001 uM KAM,0.001005
same,median Log10 fold change,PTK2; 0.01 uM KAM,-0.00785
same,median Log10 fold change,PTK2; 0.1 uM KAM,-0.1794
same,median Log10 fold change,PTK2; 1 uM KAM,-0.5062
same,median Log10 fold change,PTK2; 10 uM KAM,-0.5675
same,IC50,PTK2; [1],335 nM
